Earlier results, collected in US12144796B2, “Formulations for treating cluster symptoms associated with autism spectrum disorder” (Ilera Therapeutics LLC, priority 2019, dated 2024).

In the case of `CC12CCC(CC1)C(C)(C)O2` [Eucalyptol, 1,3,3-trimethyl-2-oxabicyclo[2.2.2]octane], the solubility in water is listed as “insoluble in water”.
